US10251919B2, “Method for improving skin condition or anti-microorganisms or anti-oxidation using Lactobacillus sakei MD honeysuckle” (AMOREPACIFIC CORPORATION, priority 2015, dated 2019)
“And” between values parts separate entries of the source, which are not always exact repeats. Equal values may be shown once.

Assays:
DPPH assay = assay type: biochemical; conditions: at 100 μM; 1 mL 0.2 mM DPPH, 30 minutes
Experimental: L-Ascorbic acid (Sigma Aldrich) was used as a positive control. […] MRS broth not treated with a strain was used as a negative control. After the reaction, OD515 was measured using a spectrophotometer and DPPH radical scavenging activity was calculated according to the following equation. DPPH radical scavenging activity (%)=[(Absorbance of control to which sample was not added)−(Absorbance of group to which sample was added)]/(Absorbance of control to which sample was not added) […] The experiment was conducted 3 times and the average value was obtained.

B16 melanoma cells = experiment: B16 melanoma cell melanin assay (melanogenesis inhibiting ability); assay type: cell-based; conditions: 100 ppm sample, 200 nM a-MSH; for extracellular OD475 / extracellular melanin / extracellular melanin, % of control / melanin/protein: replicates 1-3
Experimental: Skin-whitening effect was evaluated as described below. B16 melanoma cells were seeded onto a 12-well plate at a density of 1.5×10^5 cells per well. DMEM (Dulbeco's modified Eagle's medium) supplemented with 10% fetal bovine serum was used and the cells were cultured for 24 hours (10% CO2, 37° C.). The 12-well plate onto which the B16 melanoma cells were seeded was treated with 200 nM melanocyte-stimulating hormone (MSH) and then the 12-well plate was treated with each sample (25, 50, 100 and 200 ppm). The test groups were: a group treated with sonicated identified strain (LBS sonication), a group treated with heat-killed identified strain (LBS heat), and a group treated with cultural filtrate of the identified strain (culture). […] The cells treated with nothing were used as a negative control group and those treated only with MSH was used as a vehicle group. After the treatment, the cell culture (extracellular melanin) was transferred to a 96-well plate and absorbance was measured at 475 nm. […] The calculated melanin content was normalized to the total protein content for each group and the melanogenesis inhibiting ability was evaluated by comparing with the control groups. The experiment was repeated 3 times.

| Compound | DPPH radical scavenging activity (DPPH assay) | extracellular melanin, % of control (average of 3) (B16 melanoma cells) | extracellular OD475 (B16 melanoma cells) | extracellular melanin (B16 melanoma cells) | extracellular melanin, % of control (B16 melanoma cells) | melanin/protein (B16 melanoma cells) |
| --- | --- | --- | --- | --- | --- | --- |
| O=C1O[C@H]([C@@H](O)CO)C(O)=C1O [L-ascorbic acid] | about 7% | – | – | – | – | – |
| OC[C@H]1O[C@@H](Oc2ccc(O)cc2)[C@H](O)[C@@H](O)[C@@H]1O [arbutin] | – | 111.1 % of control | 0.281 and 0.252 and 0.274 | 138.50 ppm and 124.00 ppm and 135.00 ppm | 116.8 % of control and 106.1 % of control and 110.5 % of control | 214.2 µg/mg and 194.5 µg/mg and 202.6 µg/mg |
| O=c1cc(CO)occ1O [kojic acid] | – | 67.3 % of control | 0.163 | 68.00 ppm and 70.00 ppm and 79.50 ppm | 65.1 % of control and 65.3 % of control and 71.5 % of control | 119.4 µg/mg and 119.7 µg/mg and 131.2 µg/mg |
